Source: PMC6540907, “The nuclear export inhibitor aminoratjadone is a potent effector in extracellular-targeted drug conjugates” (Chemical Science, 2019)
Like-named read-outs stand apart in the source and are kept apart here. No end group written: not given here.

How the values were obtained:
L-929 [1] = test: Cell proliferation assay (MTT, 5 days); assay type: cell-based, murine; conditions: Mus musculus
Description: (§1) Biological evaluation of the compounds […]
(§2) serial dilutions of the test compound were given to 120 µL of suspended cells (50.000/mL) in wells of 96-well plates. After 5 days of incubation growth inhibition (IC50) was determined using an MTT assay.9
(§3) Table S1:Medium conditions for different cell types.
(§4) Cell type Medium Additives
(§5) L-929 (DSMZ ACC 2) DME medium (high glucose) (Gibco) 10% fetal calf serum (Gibco) SKOV-3 DSMZ ATCC HTB Mc Coys-Medium (Gibco) 10% fetal calf serum (Gibco) […]
A549 (DSMZ ACC 107) DME medium (high glucose) (Gibco) 10% fetal calf serum (Gibco) KB 3.1 (DSMZ ACC 158) DME medium (high glucose) (Gibco) 10% fetal calf serum (Gibco) Ratjadone Compound Antiproliferative activity IC50 [nM]
KB-3.1: human cervix carcinoma, KB-V1: multi-drug-resistant human cervix carcinoma, K-562: human chronic myelogenous leukemia cell, PC-3: human prostate carcinoma, L-929: murine fibroblast
Figure S8: Structures of Ratjadone A-D and their antiproliferative activity (IC50 values in nM). Data published by Köster et al.10

PC-3 = tested on: PC-3; design: method as in Köster et al.10; conditions: PC-3 human prostate carcinoma; ref Köster et al.10; read-out: Antiproliferative activity IC50; cited from earlier work
CRM1 = CRM1 (Homo sapiens, UniProt O14980); test: Nuclear export inhibition, fluorescent translocation biosensor in recombinant HeLa cells; assay type: cell-based; design: This cellular assay uses HeLa cells that express a recombinant fusion protein; endogenous in cells; host or cells: HeLa cells stably expressing the NLS-GST-GFP-RevNES translocation biosensor (HeLaRevBio); conditions: 1 h incubation
KB-V1 = tested on: KB-V1; design: method as in Köster et al.10; conditions: KB-V1 multi-drug-resistant human cervix carcinoma; ref Köster et al.10; read-out: Antiproliferative activity IC50; cited from earlier work
A-549 = test: cells; assay type: cell-based, human; conditions: Homo sapiens
Description: as §1, §2, §3, §4, §5
(§6) A549 (DSMZ ACC 107) DME medium (high glucose) (Gibco) 10% fetal calf serum (Gibco)

SK-OV-3 = test: cells; assay type: cell-based, human; conditions: Homo sapiens
Description: as §1, §2, §3, §4, §5, §6

MCF-7 = test: cells; assay type: cell-based, human; conditions: Homo sapiens
Description: as §1, §2, §3, §4, §5, §6

KB-3.1 [2] = test: cells; assay type: cell-based, human
Description: as §1, §2, §3, §4, §5, §6

K-562 = tested on: K-562; design: method as in Köster et al.10; conditions: K-562 human chronic myelogenous leukemia; ref Köster et al.10; read-out: Antiproliferative activity IC50; cited from earlier work
L-929 [3] = tested on: L-929; design: method as in Köster et al.10; conditions: L-929 murine fibroblast; ref Köster et al.10; read-out: Antiproliferative activity IC50; cited from earlier work
KB-3.1 [4] = tested on: KB-3.1; design: method as in Köster et al.10; conditions: KB-3.1 human cervix carcinoma; ref Köster et al.10; read-out: Antiproliferative activity IC50; cited from earlier work
[5] = tested on: panel of cancer cell lines; test: Antiproliferative activity of drug-free LHRH carriers in a panel of cancer cell lines; assay type: cell-based, human; conditions: KB-3.1, A-549, SK-OV-3, MCF-7
Source text: Luteinizing hormone releasing hormone (LHRH)-based carriers were selected for this purpose, because it has been shown that several cancer cell types overexpress receptors for LHRH, a peptide-hormone involved in regulation of the sex glands of males and females.[25],[26],[29],[82]–[84] We synthesized three novel derivatives of LHRH that bear azido-ornithine as […] amino acid of the decapeptide core structure instead of the glycine residue found in the natural peptide (Fig. 8). As the importance of the newly introduced stereocenter was unclear, both diastereoisomers L-Orn-N3-LHRH and D-Orn-N3-LHRH were prepared. An additional analog, D-Orn-N3-Gose, was based on the synthetic LHRH analogue goserelin, that was reported to have higher affinity for the LHRH-receptor[85] due to a hydrazine carboxamide in the C-terminal position. […] Next, their antiproliferative activities were evaluated in a panel of cancer cell lines, in order to assess a contribution of the drug-free targeting moiety to bioactivity. […] The conjugates were evaluated for their antiproliferative activity against the LHRH-receptor-positive lung cancer cell line A-549 (Table 3). […]
serial dilutions of the test compound were given to 120 µL of suspended cells (50.000/mL) in wells of 96-well plates. After 5 days of incubation growth inhibition (IC50) was determined using an MTT assay.9 […]

[6] = Plasma stability assay (HPLC-MS/MS); assay type: in vitro ADME; conditions: 37 °C, pH 7.4, two hours, 250 µM
Description: We exposed three selected conjugates, FA-7-Val-Cit-PABA-16R-aminoratjadone, FA-SS-16R-aminoratjadone and FA-3b-16R-aminoratjadone, to human plasma and quantified their relative amount at different time points by HPLC-MS/MS analysis (Fig. 9).
FA-7-Val-Cit-pABA-16R-Aminoratjadone (PK008a), FA-SS-16R-Aminoratjadone (PK026a) and FA-3b-L-Aminoratjadone (PK058a) were dissolved in DMSO were added to human plasma (pH 7.4, 37°C) to yield a final concentration of 10 µg/ml. In addition, procaine, propoxycaine and procainamide (dissolved in DMSO) were added to human plasma (pH 7.4, 37°C) to yield a final concentration of 250 µM. Procaine and propoxycaine served as positive controls as they are known to be unstable in mouse plasma. Procainamide served as negative control as it is known to be stable in mouse plasma. The samples were incubated for 0 min, 30 min, 60 min, 90 min and 120 min at 37°C. At each time point 10 µl of the respective sample was extracted with 50 µl acetonitrile containing an internal standard for 15 min on ice. […] All samples were analyzed via HPLC-MS using an Agilent 1290 Inifinity II HPLC system coupled to an AB Sciex QTrap 6500plus mass spectrometer. […]
MRM. All compo unds were detected in positive scan mode. Peak areas of each compound and of the internal standard were analyzed using MultiQuant 3.0 software (AB Sciex). Peaks were quantified using […]

[7] = design: method as in ref 86 = [86]; Hartmann D. A. Curr. Protoc. Pharmacol. 2002 19 7.6.1 7.6.8; conditions: cited from earlier work

Chain of CRM1 (O14980 whole entry, the tested form may be a part): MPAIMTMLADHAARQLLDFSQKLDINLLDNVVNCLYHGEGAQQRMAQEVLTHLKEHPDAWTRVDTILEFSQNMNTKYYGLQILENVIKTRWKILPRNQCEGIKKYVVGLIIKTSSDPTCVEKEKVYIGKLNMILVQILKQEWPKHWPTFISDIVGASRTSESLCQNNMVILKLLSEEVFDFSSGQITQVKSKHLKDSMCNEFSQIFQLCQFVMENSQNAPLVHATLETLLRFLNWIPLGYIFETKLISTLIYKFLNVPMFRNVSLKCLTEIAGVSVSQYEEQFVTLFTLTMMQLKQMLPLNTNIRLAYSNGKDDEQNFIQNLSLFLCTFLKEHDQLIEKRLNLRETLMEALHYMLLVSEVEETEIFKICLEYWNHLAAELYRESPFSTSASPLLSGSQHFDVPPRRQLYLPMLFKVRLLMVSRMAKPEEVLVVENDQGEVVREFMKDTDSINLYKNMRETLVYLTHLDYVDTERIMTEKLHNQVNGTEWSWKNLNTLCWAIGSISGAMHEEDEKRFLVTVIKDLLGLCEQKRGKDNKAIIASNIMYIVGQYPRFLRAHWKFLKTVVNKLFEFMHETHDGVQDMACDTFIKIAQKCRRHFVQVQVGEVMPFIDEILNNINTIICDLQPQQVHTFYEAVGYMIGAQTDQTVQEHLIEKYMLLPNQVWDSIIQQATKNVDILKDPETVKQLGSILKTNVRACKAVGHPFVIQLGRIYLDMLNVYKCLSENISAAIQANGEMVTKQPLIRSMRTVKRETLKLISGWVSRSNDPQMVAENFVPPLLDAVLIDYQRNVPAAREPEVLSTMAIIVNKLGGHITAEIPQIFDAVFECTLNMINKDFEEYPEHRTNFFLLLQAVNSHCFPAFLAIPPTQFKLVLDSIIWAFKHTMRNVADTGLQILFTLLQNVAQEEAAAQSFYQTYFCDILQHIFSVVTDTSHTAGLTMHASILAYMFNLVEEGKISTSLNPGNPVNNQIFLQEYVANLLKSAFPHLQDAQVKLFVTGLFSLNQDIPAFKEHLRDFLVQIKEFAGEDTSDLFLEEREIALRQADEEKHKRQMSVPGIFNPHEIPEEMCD

Molecule | IC50 (PC-3) [nM] | IC50 (KB-V1) [nM] | IC50 (K-562) [nM] | IC50 (L-929 [3]) [nM] | IC50 (KB-3.1 [4]) [nM] | other results
CC=CC1OC(C(O)C=CC=C(C)CC(C)C=C(C)C=CC2CC=CC(=O)O2)CC(O)C1C (single isomer, unassigned; (+)) [Compound 1, (+)-ratjadone A, reference compound] | 0.08 | 0.15 | 0.3 | 0.15 | 0.3 | IC50 (L-929 [1]; L929, L-929 murine fibroblast, read-out: Antiproliferative activity IC50): 0.68 nM; IC50 (CRM1; HeLa cells expressing translocation biosensor, read-out: nuclear export inhibition IC50): 1.2 nM; IC50 (A-549; A549, A-549 human lung carcinoma, read-out: Antiproliferative activity IC50): 0.15 nM; IC50 (SK-OV-3; SK-OV-3, SK-OV-3 human ovarian carcinoma, read-out: Antiproliferative activity IC50): 0.24 nM; IC50 (MCF-7; MCF7, MCF-7 human breast carcinoma, read-out: Antiproliferative activity IC50): 0.11 nM; IC50 (KB-3.1 [2]; KB 3-1, KB-3.1 human cervix carcinoma, read-out: Antiproliferative activity IC50): 0.46 nM
C/C=C/[C@@H]1O[C@H]([C@@H](O)/C=C/C=C/C[C@@H](C)/C=C(C)\C=C\[C@H]2CC=CC(=O)O2)C[C@@H](O)[C@@H]1C [Compound 2, Ratjadone B] | 0.15 | 0.15 | 0.5 | 0.35 | 1 | –
C/C=C/[C@@H]1O[C@H]([C@@H](O)/C=C/C=C/C[C@@H](C)/C=C(\C=C\[C@H]2CC=CC(=O)O2)CC)C[C@@H](O)[C@@H]1C [Compound 3, Ratjadone C] | 0.08 | 0.08 | 0.15 | 0.2 | 0.35 | –
C/C=C/[C@@H]1O[C@H](C/C=C/C=C/C[C@@H](C)/C=C(\C=C\[C@H]2CC=CC(=O)O2)CC)C[C@@H](O)[C@@H]1C [Compound 4, Ratjadone D] | 0.4 | 0.3 | 0.5 | 1 | 2 | –
C#CCCOC(=O)N[C@H](/C=C/C=C(\C)C[C@@H](C)/C=C(C)\C=C\[C@H]1CC=CC(=O)O1)[C@@H]1C[C@@H](O)[C@H](C)[C@H](/C=C/C)O1 [Compound 21] | – | – | – | – | – | IC50 (L-929 [1]; L929, read-out: Antiproliferative activity IC50, L-929 murine fibroblast): 4.5 nM; IC50 (CRM1; nuclear export inhibition IC50, HeLa cells expressing translocation biosensor): 46.1 nM; IC50 (A-549; A549, read-out: Antiproliferative activity IC50, A-549 human lung carcinoma): 1.25 nM; IC50 (SK-OV-3; SK-OV-3, read-out: Antiproliferative activity IC50): 0.45 nM; IC50 (MCF-7; MCF7, read-out: Antiproliferative activity IC50, MCF-7 human breast carcinoma): 0.27 nM; IC50 (KB-3.1 [2]; Homo sapiens, KB 3-1, read-out: Antiproliferative activity IC50, KB-3.1 human cervix carcinoma): 0.47 nM
CC(C)C[C@H](NC(=O)[C@H](CCCN=[N+]=[N-])NC(=O)[C@H](Cc1ccc(O)cc1)NC(=O)[C@H](CO)NC(=O)[C@H](Cc1c[nH]c2ccccc12)NC(=O)[C@H](Cc1c[nH]cn1)NC(=O)[C@@H]1CCC(=O)N1)C(=O)N[C@@H](CCCNC(=N)N)C(=O)N1CCC[C@H]1C(=O)NCC(N)=O [L-Orn-N3-LHRH] | – | – | – | – | – | antiproliferative activity of the drug-free targeting moiety [5]: no antiproliferative activity
CCN(CC)CCOC(=O)c1ccc(N)cc1 [procain] | – | – | – | – | – | degraded in human plasma [6]: more than 90%; stability in plasma (known) [7]: degrade rapidly in plasma
CCCOc1cc(N)ccc1C(=O)OCCN(CC)CC [propoxycain] | – | – | – | – | – | degraded in human plasma [6]: more than 90%; stability in plasma (known) [7]: degrade rapidly in plasma
LHRH: luteinizing hormone releasing hormone, peptide hormone (QHWSYGLRPG-NH2; not fully specified (residue 1); ends and bridges not checked; UniProt P01148 24-33, looked up) [reference compound] | – | – | – | – | – | antiproliferative activity of the drug-free targeting moiety [5]: no antiproliferative activity
